{
  "source": "patent US9163008B2",
  "about": "“Pyrimidines as sodium channel blockers” (Purdue Pharma, L.P., priority 2011, dated 2015)",
  "key": {"human Nav1.7": {"target": "human Nav1.7 (Homo sapiens (Human), UniProt Q15858)", "sequence (Q15858 other isoform, or with tags, fused parts or gaps)": "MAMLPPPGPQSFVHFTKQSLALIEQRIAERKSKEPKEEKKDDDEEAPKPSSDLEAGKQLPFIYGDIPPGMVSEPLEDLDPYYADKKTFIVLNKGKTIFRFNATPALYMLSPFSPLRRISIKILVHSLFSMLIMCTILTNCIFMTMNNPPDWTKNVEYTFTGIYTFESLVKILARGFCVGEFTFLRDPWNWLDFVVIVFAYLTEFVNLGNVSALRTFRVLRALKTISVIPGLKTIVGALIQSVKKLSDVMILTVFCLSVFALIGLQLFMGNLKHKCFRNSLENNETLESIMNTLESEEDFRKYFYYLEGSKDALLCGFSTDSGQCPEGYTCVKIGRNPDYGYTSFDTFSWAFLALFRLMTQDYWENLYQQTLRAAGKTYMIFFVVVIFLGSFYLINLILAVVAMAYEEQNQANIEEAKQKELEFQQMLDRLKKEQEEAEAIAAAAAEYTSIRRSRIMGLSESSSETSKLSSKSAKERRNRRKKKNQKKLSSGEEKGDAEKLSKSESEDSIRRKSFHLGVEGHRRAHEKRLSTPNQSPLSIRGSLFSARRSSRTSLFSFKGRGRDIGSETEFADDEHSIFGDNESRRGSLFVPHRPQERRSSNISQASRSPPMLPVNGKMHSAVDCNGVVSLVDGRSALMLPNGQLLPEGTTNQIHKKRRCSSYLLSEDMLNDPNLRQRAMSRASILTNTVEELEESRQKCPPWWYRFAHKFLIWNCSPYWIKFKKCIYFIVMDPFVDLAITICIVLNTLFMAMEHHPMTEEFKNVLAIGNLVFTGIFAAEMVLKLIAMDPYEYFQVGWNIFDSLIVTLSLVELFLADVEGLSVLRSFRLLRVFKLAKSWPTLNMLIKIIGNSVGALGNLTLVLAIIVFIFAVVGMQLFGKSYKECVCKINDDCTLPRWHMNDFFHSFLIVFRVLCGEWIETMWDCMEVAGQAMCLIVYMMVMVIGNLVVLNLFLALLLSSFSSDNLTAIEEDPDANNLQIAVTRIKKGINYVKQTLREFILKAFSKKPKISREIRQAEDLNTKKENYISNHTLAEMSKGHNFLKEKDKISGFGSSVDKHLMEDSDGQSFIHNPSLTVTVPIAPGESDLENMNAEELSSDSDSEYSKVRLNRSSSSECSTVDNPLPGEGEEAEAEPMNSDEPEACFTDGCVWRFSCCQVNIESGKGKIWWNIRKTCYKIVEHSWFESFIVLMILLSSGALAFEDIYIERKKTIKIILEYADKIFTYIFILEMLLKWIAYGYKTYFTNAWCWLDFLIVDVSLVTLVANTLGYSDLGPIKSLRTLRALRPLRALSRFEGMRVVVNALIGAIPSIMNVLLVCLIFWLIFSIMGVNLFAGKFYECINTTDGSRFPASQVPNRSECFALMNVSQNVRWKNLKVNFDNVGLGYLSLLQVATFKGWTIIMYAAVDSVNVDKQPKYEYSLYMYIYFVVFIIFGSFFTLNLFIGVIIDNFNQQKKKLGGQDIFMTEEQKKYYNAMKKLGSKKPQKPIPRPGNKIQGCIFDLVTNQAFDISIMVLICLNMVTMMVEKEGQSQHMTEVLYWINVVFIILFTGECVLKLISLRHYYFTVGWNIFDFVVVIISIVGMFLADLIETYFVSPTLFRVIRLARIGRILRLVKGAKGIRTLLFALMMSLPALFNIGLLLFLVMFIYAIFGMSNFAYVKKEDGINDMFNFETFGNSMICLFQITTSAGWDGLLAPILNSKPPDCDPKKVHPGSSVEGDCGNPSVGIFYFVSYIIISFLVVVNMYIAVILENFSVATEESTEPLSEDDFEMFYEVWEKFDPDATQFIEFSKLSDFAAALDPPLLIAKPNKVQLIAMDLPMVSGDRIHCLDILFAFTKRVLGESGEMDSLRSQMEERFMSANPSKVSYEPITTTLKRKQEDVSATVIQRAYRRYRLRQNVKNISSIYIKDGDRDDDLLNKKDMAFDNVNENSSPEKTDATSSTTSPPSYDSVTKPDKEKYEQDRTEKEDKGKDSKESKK", "assay": "FLIPR sodium dye assay (CoroNa Green) with KCl and test article pre-incubation", "assay_type": "cell-based", "conditions": "read-out: Nav1.7 Activity FLIPR assay IC50"}, "hNav1.7": {"target": "hNav1.7 (Homo sapiens (Human), UniProt Q15858)", "sequence (Q15858 other isoform, or with tags, fused parts or gaps)": "as above", "assay": "Electrophysiology (EP) whole-cell patch clamp assay", "assay_type": "cell-based", "conditions": "for Ki: read-out: Nav1.7 Activity EP assay Ki; for Kd: resting block dissociation constant, read-out: Nav1.7 Activity EP assay Kr", "procedure": "The hNav1.7 expressing HEK-293 cells were plated on 35 mm culture dishes pre-coated with poly-D-lysine in standard DMEM culture media (Mediatech, Inc., Herndon, Va.) and incubated in a 5% CO2 incubator at 37° C. Cultured cells were used approximately 12-48 h after plating.\nOn the day of experimentation, the 35 mm dish was placed on the stage of an inverted microscope equipped with a perfusion system that continuously perfuses the culture dish with fresh recording media. A gravity driven superfusion system was used to apply test solutions directly to the cell under evaluation. This system consists of an array of glass pipette glass connected to a motorized horizontal translator. The outlet of the shooter was positioned approximately 100 μm from the cell of interest.\nGigaseals were formed and the whole-cell configuration was established in voltage clamp mode, and membrane currents generated by hNav1.7 were recorded in gap-free mode. […] Signals were sampled at 50 kHz and low pass filtered at 3 kHz.\nTo determine a membrane potential at which the majority of channels are in the resting state, a standard steady-state inactivation (SSIN) protocol was run using 100 ms prepulses×10 mV depolarizing steps. The holding potential for testing resting block (Vh1) was 20 mV more hyperpolarized than the first potential where inactivation is observed with the inactivation protocol.\nFrom this holding potential a standard I-V protocol was run to determine the potential at which the maximal current (Imax) was elicited. This potential was the test potential (Vt).\nThe fractional response was calculated as follows: FR=I(after drug)/I(control),\nwhere I is the peak current amplitude and was used for estimating resting block dissociation constant, Kr: Kr=[drug]*{FR/(1−FR)},\nTo assess the block of inactivated channels the holding potential was depolarized such that 20-50% of the current amplitude was reduced when pulsed to the same Vt as above. The magnitude of this depolarization depends upon the initial current amplitude and the rate of current loss due to slow inactivation. This was the second holding potential (Vh2). The current reduction was recorded to determine the fraction of available channels at this potential (h). h=I@Vh2/Imax.\nAt this membrane voltage a proportion of channels are in the inactivated state, and thus inhibition by a blocker includes interaction with both resting and inactivated channels.\nTo determine the potency of the test compound on inactivated channels, a series of currents were elicited by 10 ms voltage steps from Vh2 to Vt every 10-15 seconds. After establishing a stable baseline, the low concentration of the compound was applied. Multiple cumulative concentrations may have to be applied to identify a concentration that will block between 40-60% of the current. Washout was attempted to re-establish baseline. Fractional responses were measured with respect to a projected baseline to determine Kapp. Kapp=[drug]*{FR/(1−FR)},\nThis Kapp value, along with the calculated Kr and h values, were used to calculate the affinity of the compound for the inactivated channels (Ki) using the following equation: Ki=(1−h)/((1/Kapp)−(h/Kr)).\nVehicle solution used to establish base line was also contacting 0.3% DMSO.\nData was analyzed off-line using Clampfit software (pClamp, v. 8; Axon Instruments) and graphed using GraphPad Prizm (v. 4.0 or higher) software."}, "[1]": {"system": "SNL-induced mechanical hyperalgesia", "assay": "SNL-induced mechanical hyperalgesia model (paw pressure test)", "assay_type": "in vivo, rat", "conditions": "rats, dosed orally at 100 mg/kg, vehicle 0.5% methyl cellulose, one hour before testing", "procedure": "In the Chung model, the spinal nerve ligation (SNL) model of neuropathic pain is used to produce mechanical hyperalgesia, thermal hyperalgesia, and tactile allodynia in rats. Surgery is performed under isoflurane/O2 inhalation anesthesia. Following induction of anesthesia a 3 cm incision is made and the left paraspinal muscles are separated from the spinous process at the L4-S2 levels. The L6 transverse process is carefully removed with a pair of small rongeurs to identify visually the L4-L6 spinal nerves. The left L5 (or L5 and L6) spinal nerve(s) is (are) isolated and tightly ligated with silk thread. […] The animals can also be assessed for response to noxious thermal stimuli or for tactile allodynia, as described below. […] Sensitivity to noxious mechanical stimuli was measured in animals using the paw pressure test to assess mechanical hyperalgesia. In rats, hind paw withdrawal thresholds (“PWT”), measured in grams, in response to a noxious mechanical stimulus were determined using an analgesymeter (Model 7200, commercially available from Ugo Basile of Italy), as described in Stein (Biochemistry & Behavior 31: 451-455 (1988)). […] PWT was determined once for each rat at each time point. PWT can be measured only in the injured paw, or in both the injured and non-injured paw. […]"}, "[2]": {"conditions": "affinity for inactivated channels, hNav1.7 HEK-293"}, "[3]": {"conditions": "recombinant human Nav1.7 in HEK293, veratridine and scorpion venom agonists"}},
  "note": "Where two headings read alike, the source gives them in different places.",
  "data": [
    {"smiles": "C[C@H](Nc1cc(C(N)=O)nc(-c2ccc(Oc3ccc(F)cc3)cc2)n1)C(N)=O", "note": "[Cpd No. 1, (S)-6-((1-amino-1-oxopropan-2-yl)amino)-2-(4-(4-fluorophenoxy)phenyl)pyrimidine-4-carboxamide]", "values": [
      {"measurement": "IC50", "setting": "human Nav1.7", "value": 420, "unit": "nM"},
      {"measurement": "Ki", "setting": "hNav1.7", "value": 57, "unit": "nM"},
      {"measurement": "Kd", "setting": "hNav1.7; hNav1.7 HEK-293", "value": 4220, "unit": "nM"}
    ]},
    {"smiles": "NC(=O)c1cc(N2CCC[C@H]2C(N)=O)nc(-c2ccc(Oc3ccc(F)cc3)cc2)n1", "note": "[Cpd No. 5, (S)-6-(2-carbamoylpyrrolidin-1-yl)-2-(4-(4-fluorophenoxy)phenyl)pyrimidine-4-carboxamide]", "values": [
      {"measurement": "IC50", "setting": "human Nav1.7", "value": 260, "unit": "nM"},
      {"measurement": "Ki", "setting": "hNav1.7; [2]", "value": 78, "unit": "nM"},
      {"measurement": "Kd", "setting": "hNav1.7; hNav1.7 HEK-293", "value": 7950, "unit": "nM"}
    ]},
    {"smiles": "C[C@H](Nc1cc(C(N)=O)nc(-c2ccc(Oc3ccc(C(F)(F)F)cn3)cc2)n1)C(N)=O", "note": "[Cpd No. 13, (S)-6-((1-amino-1-oxopropan-2-yl)amino)-2-(4-((5-(trifluoromethyl)pyridin-2-yl)oxy)phenyl)pyrimidine-4-carboxamide]", "values": [
      {"measurement": "IC50", "setting": "human Nav1.7", "value": 990, "unit": "nM"},
      {"measurement": "Ki", "setting": "hNav1.7; [2]", "value": 420, "unit": "nM"},
      {"measurement": "Kd", "setting": "hNav1.7; hNav1.7 HEK-293", "value": 169000, "unit": "nM"}
    ]},
    {"smiles": "C[C@@H](Nc1cc(C(N)=O)nc(-c2ccc(Oc3ccc(F)cc3)cc2)n1)C(N)=O", "note": "[Cpd No. 21, (R)-6-((1-amino-1-oxopropan-2-yl)amino)-2-(4-(4-fluorophenoxy)phenyl)pyrimidine-4-carboxamide]", "values": [
      {"measurement": "IC50", "setting": "human Nav1.7", "value": 600, "unit": "nM"},
      {"measurement": "Ki", "setting": "hNav1.7", "value": 230, "unit": "nM"},
      {"measurement": "Kd", "setting": "hNav1.7; hNav1.7 HEK-293", "value": 7250, "unit": "nM"}
    ]},
    {"smiles": "C[C@H](Nc1cc(C(=O)O)nc(-c2ccc(Oc3ccc(F)cc3)cc2)n1)C(N)=O", "note": "[Cpd No. 35, (S)-6-((1-amino-1-oxopropan-2-yl)amino)-2-(4-(4-fluorophenoxy)phenyl)pyrimidine-4-carboxylic acid]", "values": [
      {"measurement": "IC50", "setting": "human Nav1.7; [3]", "value": "> 20000", "unit": "nM"},
      {"measurement": "Ki", "setting": "hNav1.7; [2]", "value": 20500, "unit": "nM"},
      {"measurement": "Kd", "setting": "hNav1.7; hNav1.7 HEK-293", "value": 102000, "unit": "nM"}
    ]},
    {"smiles": "C[C@H](Nc1cc(C(=O)O)nc(-c2ccc(Oc3ccc(F)cc3)cc2)n1)C(=O)O", "note": "[Cpd No. 40, (S)-6-((1-carboxyethyl)amino)-2-(4-(4-fluorophenoxy)phenyl)pyrimidine-4-carboxylic acid]", "values": [
      {"measurement": "IC50", "setting": "human Nav1.7; [3]", "value": "> 20000", "unit": "nM"},
      {"measurement": "Ki", "setting": "hNav1.7; [2]", "value": 41000, "unit": "nM"},
      {"measurement": "Kd", "setting": "hNav1.7; hNav1.7 HEK-293", "value": 110000, "unit": "nM"}
    ]},
    {"smiles": "C[C@H](Nc1cc(C(N)=O)nc(-c2ccc(Oc3ccc(Cl)cn3)cc2)n1)C(N)=O", "note": "[Cpd No. 63, (S)-6-((1-amino-1-oxopropan-2-yl)amino)-2-(4-((5-chloropyridine-2-yl)oxy)phenyl)pyrimidine-4-carboxamide]", "values": [
      {"measurement": "IC50", "setting": "human Nav1.7", "value": 790, "unit": "nM"},
      {"measurement": "Ki", "setting": "hNav1.7; [2]", "value": 600, "unit": "nM"},
      {"measurement": "Kd", "setting": "hNav1.7; hNav1.7 HEK-293", "value": 28000, "unit": "nM"}
    ]},
    {"smiles": "C[C@H](Nc1cc(C(N)=O)nc(-c2ccc(Oc3ccc(Cl)cc3F)cc2)n1)C(N)=O", "note": "[Cpd No. 64, (S)-6-((1-amino-1-oxopropan-2-yl)amino)-2-(4-(4-chloro-2-fluorophenoxy)phenyl)pyrimidine-4-carboxamide]", "values": [
      {"measurement": "IC50", "setting": "human Nav1.7", "value": 180, "unit": "nM"},
      {"measurement": "Ki", "setting": "hNav1.7; [2]", "value": 16, "unit": "nM"},
      {"measurement": "Kd", "setting": "hNav1.7; hNav1.7 HEK-293", "value": 730, "unit": "nM"}
    ]},
    {"smiles": "C[C@H](Nc1cc(C(N)=O)nc(-c2ccc(Oc3ccc(OC(F)(F)F)cc3)cc2)n1)C(N)=O", "note": "[Cpd No. 84, (S)-6-((1-amino-1-oxopropan-2-yl)amino)-2-(4-(4-(trifluoromethoxy)phenoxy)phenyl)pyrimidine-4-carboxamide]", "values": [
      {"measurement": "SNL-induced mechanical hyperalgesia (paw withdrawal threshold)", "setting": "[1]", "value": "reduced SNL-induced mechanical hyperalgesia"}
    ]},
    {"smiles": "NC(=O)c1cc(N[C@H]2CCNC2=O)nc(-c2ccc(Oc3ccc(C(F)(F)F)cn3)cc2)n1", "note": "[compound 99, (S)-6-((2-oxopyrrolidin-3-yl)amino)-2-(4-((5-(trifluoromethyl)pyridin-2-yl)oxy)phenyl)pyrimidine-4-carboxamide]", "values": [
      {"measurement": "IC50", "setting": "human Nav1.7", "value": 570, "unit": "nM"},
      {"measurement": "SNL-induced mechanical hyperalgesia (paw withdrawal threshold)", "setting": "[1]", "value": "reduced SNL-induced mechanical hyperalgesia"},
      {"measurement": "Ki", "setting": "hNav1.7; [2]", "value": 83, "unit": "nM"},
      {"measurement": "Kd", "setting": "hNav1.7; hNav1.7 HEK-293", "value": 4650, "unit": "nM"}
    ]},
    {"smiles": "C[C@H](Nc1cc(C(N)=O)nc(N2CCC(Oc3ccc(C#N)cc3)CC2)n1)C(N)=O", "note": "[compound 100, (S)-6-((1-amino-1-oxopropan-2-yl)amino)-2-(4-(4-cyanophenoxy)piperidin-1-yl)pyrimidine-4-carboxamide]", "values": [
      {"measurement": "IC50", "setting": "human Nav1.7; [3]", "value": 4570, "unit": "nM"}
    ]}
  ]
}
